Measurements taken from patent US6316450A, “Compounds” (SmithKline Beecham p.l.c., priority 1997, dated 2001).
Structures can show the parent of a compound that is named as a salt. Where two headings read alike, the source gives them in different places.

Molecular target: human cloned 5-HT6 receptors (Homo sapiens, UniProt P50406)
Experiment: biochemical
Type: binding
Design: selectivity: reference not given here
[1] = [3H]-LSD, HeLa-5HT6 cell membranes, pH 7.7, 37° C., read-out: pKi (converted)
[2] = selective 5-HT6 receptor antagonist activity

human cloned 5-HT6 receptors, sequence (P50406 whole entry): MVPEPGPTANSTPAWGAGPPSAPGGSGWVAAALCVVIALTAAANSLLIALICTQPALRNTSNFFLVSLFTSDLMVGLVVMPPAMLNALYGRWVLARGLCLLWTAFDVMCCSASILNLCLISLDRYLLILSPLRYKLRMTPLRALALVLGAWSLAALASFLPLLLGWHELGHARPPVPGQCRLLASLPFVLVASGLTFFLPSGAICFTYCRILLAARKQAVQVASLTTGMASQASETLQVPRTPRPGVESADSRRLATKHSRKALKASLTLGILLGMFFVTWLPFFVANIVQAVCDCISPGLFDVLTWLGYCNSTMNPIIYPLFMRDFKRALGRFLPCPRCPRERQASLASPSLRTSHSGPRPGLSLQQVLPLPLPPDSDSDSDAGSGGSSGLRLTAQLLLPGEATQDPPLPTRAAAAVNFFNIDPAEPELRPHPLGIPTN

Q: With `COc1ccc(S(=O)(=O)Nc2cccc(Br)c2)cc1N1CCN(C)CC1.Cl` [Compound 3, N-(3-Bromophenyl)-4-methoxy-3-(4-methylpiperazin-1-yl)benzene sulfonamide hydrochloride] as the compound, how does the Ki [1] read?
A: Its Ki is < 3.16 nM.

Q: What about the selectivity [2] of the same compound?
A: Its selectivity is > 100.

Q: `COc1ccc(S(=O)(=O)N2CCCc3ccc(C(F)(F)F)cc32)cc1N1CCN(C)CC1` [Compound 8, 1-[4-Methoxy-3-(4-methylpiperazin-1-yl)-benzenesulfonyl]-7-trifluoromethyl-1,2,3,4-tetrahydroquinoline] was tested. Which Ki [1] did it give?
A: The Ki was < 3.16 nM.

Q: And the selectivity [2]?
A: Its selectivity is > 100.

Q: Which results are given for `COc1ccc(S(=O)(=O)N2CCc3c(OC)ccc(OC)c3C2)cc1N1CCN(C)CC1.Cl` [Compound 21, 5,8-Dimethoxy-2-[4-methoxy-3-(4-methylpiperazin-1-yl)-benzenesulfonyl]-1,2,3,4-tetrahydroisoquinoline hydrochloride]?
A: Ki [1]: < 3.16 nM; selectivity [2]: > 100

Q: Which results are given for `COc1ccc(S(=O)(=O)N2CCCc3ccc(C(F)(F)F)cc32)cc1N1CCNCC1` [Compound 29, 1-(4-Methoxy-3-piperizin-1-ylbenzenesulfonyl)-7-trifluoromethyl-1,2,3,4-tetrahydroquinoline hydrochloride]?
A: Ki [1]: < 3.16 nM; selectivity [2]: > 100

Q: Which results are given for `COc1ccc(S(=O)(=O)Nc2ccccc2OC(F)(F)F)cc1N1CCN(C)CC1.Cl` [Compound 32, N-(2-Trifluoromethoxyphenyl)-4-methoxy-3-(4-methylpiperazin-1-yl)-benzenesulfonamide hydrochloride]?
A: Ki [1]: < 3.16 nM; selectivity [2]: > 100

Q: For `COc1ccc(S(=O)(=O)Nc2ccc(C)c(C)c2)cc1N1CCN(C)CC1.Cl` [Compound 41, N-(3,4-Dimethylphenyl)-4-methoxy-3-(4-methylpiperazin-1-yl)-benzenesulfonamide hydrochloride], which Ki [1] is on record?
A: The Ki was < 3.16 nM.

Q: And the selectivity [2]?
A: Its selectivity is > 100.

Q: With `COc1ccc(S(=O)(=O)N2CCc3cccc(Cl)c3C2)cc1N1CCN(C)CC1.Cl` [Compound 44, 8-Chloro-2-[4-methoxy-3-(4-methylpiperazin-1-yl)benzenesulfonyl]-1,2,3,4-tetrahydroisoquinoline hydrochloride] as the compound, how does the Ki [1] read?
A: The Ki was < 3.16 nM.

Q: What about the selectivity [2] of the same compound?
A: The selectivity was > 100.

Q: Which results are given for `COc1ccc(S(=O)(=O)Nc2ccc(F)cc2Cl)cc1N1CCN(C)CC1.Cl` [Compound 45, N-(2-Chloro-4-fluorophenyl)-4-methoxy-3-(4-methylpiperazin-1-yl)-benzenesulfonamide hydrochloride]?
A: Ki [1]: < 3.16 nM; selectivity [2]: > 100

Q: With `COc1ccc(S(=O)(=O)Nc2ccccc2I)cc1N1CCN(C)CC1.Cl` [Compound 53, N-(2-Iodophenyl)-4-methoxy-3-(4-methylpiperazin-1-yl)benzenesulfonamide hydrochloride] as the compound, how does the Ki [1] read?
A: Its Ki is < 3.16 nM.

Q: What about the selectivity [2] of the same compound?
A: The selectivity was > 100.

Q: Which results are given for `COc1ccc(S(=O)(=O)Nc2ccc(I)cc2Cl)cc1N1CCN(C)CC1.Cl` [Compound 54, N-(2-Chloro-4-iodophenyl)-4-methoxy-3-(4-methylpiperazin-1-yl)-benzenesulfonamide hydrochloride]?
A: Ki [1]: < 3.16 nM; selectivity [2]: > 100

Q: Which Ki [1] does the source give for `C=Cc1ccc(NS(=O)(=O)c2ccc(OC)c(N3CCN(C)CC3)c2)cc1.Cl` [Compound 63, 4-Methoxy-3-(4-methylpiperazin-1-yl)-N-(4-vinylphenyl)benzenesulfonamide hydrochloride] here?
A: The Ki was < 3.16 nM.

Q: What about the selectivity [2] of the same compound?
A: Its selectivity is > 100.

Q: What does the source list for `COc1ccc(S(=O)(=O)Nc2ccc(Br)c(C(F)(F)F)c2)cc1N1CCN(C)CC1.Cl` [Compound 67, N-(4-Bromo-3-trifluoromethylphenyl)-4-methoxy-3-(4-methylpiperazin-1-yl)-benzenesulfonamide hydrochloride]?
A: Ki [1]: < 3.16 nM; selectivity [2]: > 100

Q: How did the Ki [1] turn out when `COc1ccc(S(=O)(=O)Nc2ccc(Cl)c(C(F)(F)F)c2)cc1N1CCN(C)CC1.Cl` [Compound 69, N-(4-Chloro-3-trifluoromethylphenyl)-4-methoxy-3-(4-methylpiperazin-1-yl)-benzenesulfonamide hydrochloride] was run?
A: Its Ki is < 3.16 nM.

Q: And the selectivity [2]?
A: Its selectivity is > 100.

Q: `COc1ccc(S(=O)(=O)N2CCCc3c(Cl)cc(Cl)cc32)cc1N1CCN(C)CC1.Cl` [Compound 73, 5,7-Dichloro-1-[4-methoxy-3-(4-methylpiperazin-1-yl)benzenesulfonyl]-1,2,3,4-tetrahydroquinoline hydrochloride] was tested. Which Ki [1] did it give?
A: Its Ki is < 3.16 nM.

Q: And the selectivity [2]?
A: The selectivity was > 100.

Q: Which Ki does the source give for `COc1ccc(S(=O)(=O)Nc2ccccc2C(C)C)cc1N1CCNCC1.Cl` [Compound 79, N-(2-Isopropylphenyl)-4-methoxy-3-piperazin-1-yl-benzenesulfonamide hydrochloride] here?
A: The Ki was < 3.16 nM.

Q: And the selectivity?
A: The selectivity was > 100.

Q: For `COc1ccc(S(=O)(=O)Nc2ccccc2SC)cc1N1CCNCC1.Cl` [Compound 85, 4-Methoxy-N-(2-methylsulfanylphenyl)-3-piperazin-1-ylbenzenesulfonamide hydrochloride], which Ki [1] is on record?
A: Its Ki is < 3.16 nM.

Q: What about the selectivity [2] of the same compound?
A: Its selectivity is > 100.

Q: `CCc1ccccc1NS(=O)(=O)c1ccc(OC)c(N2CCNCC2)c1.Cl` [Compound 88, N-(2-Ethylphenyl)-4-methoxy-3-piperazin-1-ylbenzenesulfonamide hydrochloride] was tested. Which Ki [1] did it give?
A: Its Ki is < 3.16 nM.

Q: What about the selectivity [2] of the same compound?
A: The selectivity was > 100.

Q: What does the source list for `COc1ccc(S(=O)(=O)Nc2cccc(C(F)(F)F)c2)cc1N1CCNCC1.Cl` [Compound 89, 4-Methoxy-3-piperazin-1-yl-N-(3-trifluoromethylphenyl)benzenesulfonamide hydrochloride]?
A: Ki [1]: < 3.16 nM; selectivity [2]: > 100

Q: For `COc1ccc(S(=O)(=O)Nc2ccccc2Br)cc1N1CCNCC1.Cl` [Compound 91, N-(2-Bromophenyl)-4-methoxy-3-piperazin-1-ylbenzenesulfonamide hydrochloride], which Ki is on record?
A: The Ki was < 3.16 nM.

Q: What about the selectivity of the same compound?
A: The selectivity was > 100.

Q: Which results are given for `COc1ccc(S(=O)(=O)Nc2cc(Br)ccc2Br)cc1N1CCNCC1.Cl` [Compound 100, N-(2,5-Dibromophenyl)-4-methoxy-3-piperazin-1-ylbenzenesulfonamide hydrochloride]?
A: Ki [1]: < 3.16 nM; selectivity [2]: > 100

Q: Which Ki [1] does the source give for `C=C(C)c1ccccc1NS(=O)(=O)c1ccc(OC)c(N2CCNCC2)c1.Cl` [Compound 104, N-(2-Isopropenylphenyl)-4-methoxy-3-piperazin-1-ylbenzenesulfonamide hydrochloride] here?
A: Its Ki is < 3.16 nM.

Q: And the selectivity [2]?
A: The selectivity was > 100.

Q: What does the source list for `COc1ccc(S(=O)(=O)Nc2ccc(C(C)(C)C)cc2)cc1N1CCNCC1.Cl` [Compound 107, N-(4-tert-Butylphenyl)-4-methoxy-3-piperazin-1-ylbenzenesulfonamide hydrochloride]?
A: Ki [1]: < 3.16 nM; selectivity [2]: > 100

Q: Which results are given for `COc1ccc(S(=O)(=O)Nc2ccccc2-c2ccccc2)cc1N1CCNCC1.Cl` [Compound 113, N-Biphenyl-2-yl-4-methoxy-3-piperazin-1-ylbenzenesulfonamide hydrochloride]?
A: Ki [1]: < 3.16 nM; selectivity [2]: > 100

Q: What does the source list for `COc1ccc(S(=O)(=O)Nc2cc(Cl)c(Cl)cc2Cl)cc1N1CCNCC1.Cl` [Compound 131, N-(2,4,5-Trichlorophenyl)-4-methoxy-3-piperazin-1-ylbenzenesulfonamide hydrochloride]?
A: Ki [1]: < 3.16 nM; selectivity [2]: > 100

Q: What does the source list for `COc1ccc(Cl)cc1NS(=O)(=O)c1ccc(OC)c(N2CCNCC2)c1.Cl` [Compound 132, N-(5-Chloro-2-methoxyphenyl)-4-methoxy-3-piperazin-1-ylbenzenesulfonamide hydrochloride]?
A: Ki [1]: < 3.16 nM; selectivity [2]: > 100

Q: What does the source list for `COc1ccc(S(=O)(=O)N2CCCc3ccc(Br)cc32)cc1N1CCNCC1.Cl` [Compound 145, 7-Bromo-1-(4-methoxy-3-piperazin-1-ylbenzenesulfonyl)-1,2,3,4-tetrahydroquinoline hydrochloride]?
A: selectivity: > 100; Ki (read-out: pKi (converted)): < 3.16 nM
